# According to US20230201235A1, “INHIBITION OF NIDOVIRUSES THAT ENCODE NSP15” (The University of Chicago, priority 2020, published 2023):
# What was measured:
# SARS-CoV-2 Nsp15 [1] = target: T1, SARS-CoV-2 Nsp15 (Severe acute respiratory syndrome coronavirus 2, UniProt P0DTD1); type: binding; conditions: co-crystal structures, Table 1
# Nsp15 [2] = target: T2, Nsp15 (Severe acute respiratory syndrome coronavirus 2, UniProt P0DTD1); assay: Nsp15 differential scanning fluorimetry (DSF) assay; type: binding; conditions: 10 μM Nsp15, 1 mM ligand, 10 mM MnCl2; for melting temperature (Tm) of Nsp15 in presence of ligand: same Tm as control
# Procedure: The Nsp15 differential scanning fluorimetry (DSF) assays were performed in a buffer 20 mM Tris pH 7.5, 100 mM NaCl, 1 mM TCEP that was supplemented with SYPRO™ Orange protein gel stain (Invitrogen, Carlsbad, Calif.) to 5× final concentration. 10 μM of the Nsp15 was used with the addition of each of 1 mM of tipiracil, 5′GpU, 5′UMP, 3′UMP, and TMP to get final molar ratio of protein to ligand 1:100. Additionally, the samples with ligands were supplemented with 10 mM MnCl2. After 30 min of incubation of samples at room-temperature, fluorescence measurements were done using CFX CONNECT™ Real-Time System (BioRad, Hercules, Calif.). Fluorescent signal was detected with temperature rate 1° C. per 60 sec. Samples were measured in triplicate, and the representative standard deviation of measurements are depicted for Nsp15 control sample and complex of the Nsp15 with addition of tipiracil.
# SARS-CoV-2 Nsp15 [3] = target: T1, SARS-CoV-2 Nsp15; assay: Radioactivity-based endoribonuclease assay; type: biochemical
# Nsp15 [4] = target: T2, Nsp15; assay: Fluorescence-based endoribonuclease assay; type: biochemical, SARS-CoV-2
# Procedure: The oligonucleotide dArUdAdA with 5′-6-FAM and 3′-6-TAMRA was synthetized by GenScript Biotech (Piscataway, N.J.). The concentration of 0.5 μM substrate was used with 2 μM Nsp15 in a buffer containing 20 mM HEPES at pH 7.8, 100 mM NaCl, and 5 mM MnCl2. Detection of the emission of FAM fluorescence signal was done on CFX CONNECT™ Real-Time System (Bio-Rad Laboratories, Hercules, Calif.).
# Cleavage of oligonucleotide dArUdAdA with 5′-6-FAM and 3′-6-TAMRA substrate was tested using polyacrylamide gel electrophoresis. The concentration of labeled substrate was […], and the Nsp15 concentration varied to achieve different molar ratios of substrate to Nsp15. Samples were mixed in a buffer with 20 mM HEPES at pH 7.8, 100 mM NaCl, and 5 mM MnCl2. After 10 minutes of incubation, samples were loaded on NUPAGE Tris-Acetate 3-8% gel, and the electrophoresis was done on 80 V for 1 h. The detection of FAM emission on gel was performed using the Gel DOC™ EZ System (Bio-Rad Laboratories, Hercules, Calif.).
# SARS-CoV-2 = assay: Whole cell assays: spike protein immunostaining and viral RNA qRT-PCR; type: cell-based
# A549-hACE2 cells = conditions: 1-50 μM
Molecule,binding to the active site of Nsp15 in the crystal structure (SARS-CoV-2 Nsp15 [1]),melting temperature (Tm) of Nsp15 in presence of ligand (Nsp15 [2]),shift of Nsp15 denaturation profile to higher temperatures (Nsp15 [2]; versus control) [°C],IC50 (SARS-CoV-2 Nsp15 [3]) [µM],"inhibition of cleavage reaction at higher Mn2+ concentration (SARS-CoV-2 Nsp15 [3]; octamer RNA, higher Mn2+ ion concentration (15 mM MnCl2))",IC50 (Nsp15 [4]) [µM],inhibition of virus (spike protein and RNA expression) (SARS-CoV-2),effect on viability of cells (A549-hACE2 cells)
"N=C1CCCN1Cc1[nH]c(=O)[nH]c(=O)c1Cl [tipiracil, 5-chloro-6-[(2-imino-1-pyrrolidinyl)methyl]-2,4(1H,3H)-pyrimidinedione]",binds directly in the active site of Nsp15,approximately 60.5 °C,0.5,7.5,no inhibition,72,modest,did not affect the viability of cells
Cc1cn([C@H]2C[C@H](OP(=O)(O)O)[C@@H](CO)O2)c(=O)[nH]c1=O [3′TMP],,approximately 60.5 °C,,,,,,
"uridine 2′,3′-vanadate [UV]",binds directly in the active site of Nsp15,,,,,,,
"O=c1ccn([C@@H]2O[C@H](CO)[C@@H](OP(=O)(O)O)[C@H]2O)c(=O)[nH]1 [3′UMP, 3′-uridylic acid]",binds directly in the active site of Nsp15,approximately 60.5 °C,,,,,,
"O=c1ccn([C@@H]2O[C@H](COP(=O)(O)O)[C@@H](O)[C@H]2O)c(=O)[nH]1 [5′UMP, 5′-uridylic acid]",binds directly in the active site of Nsp15,approximately 60.5 °C,,,,,,
